In assay [1] the test system is A2780. The experiment in a line: cells. The following applies: Homo sapiens, A2780, 48 h.
Description: Cytotoxicity against human A2780 cells after 48 hrs by MTT assay
The test system of assay [2] is OVCAR-3. The experiment in a line: Cytotoxicity against human OVCAR-3 cells after 48 hrs by MTT assay. The following applies: OVCAR-3, 48 h. Background: Tetrazolium dyes change colour on reduction, which living cells bring about.
Assay [3] concerns PC-3. Nature of the assay: Cytotoxicity against human PC3 cells after 48 hrs by MTT assay. The class given is functional, cell-based. The following applies: for EC50: PC-3, 48 h.
Assay [4] concerns the target Bcl-2-like protein 1 (Homo sapiens, UniProt Q07817, Y101A). Nature of the assay: Binding affinity to human Bcl-XL Y101A mutant by surface plasma resonance based biosensor system.
Assay [5] relates to HepG2. Nature of the assay: cells. The following applies: Homo sapiens, HepG2, 48 h.
Description: Cytotoxicity against human HepG2 cells after 48 hrs by MTT assay
The target in assay [6] is Induced myeloid leukemia cell differentiation protein Mcl-1 homolog (Mus musculus, UniProt P97287). Nature of the assay: Displacement of FITC-labeled BH3 peptide from GST-tagged mouse Mcl1 after 1 hr by fluorescence polarization assay.
The target in assay [7] is T1, Bcl-2-like protein 1 (Homo sapiens, UniProt Q07817). The experiment in a line: Displacement of FITC-labeled BH3 peptide from human Bcl-XL after 1 hr by fluorescence polarization assay. (In general: Fluorescence polarisation rises when a labelled molecule tumbles more slowly, as on binding a larger partner.)
For assay [8], the target named is Apoptosis regulator Bcl-2 (Homo sapiens, UniProt P10415). Nature of the assay: Displacement of FITC labeled BH3 peptide from His-tagged human BCL2 after 1 hr by fluorescence polarization assay.
A short description of assay [9]: Cytotoxicity against human Bel7404 cells after 48 hrs by MTT assay. The following applies: BEL-7404, 48 h.
The subject of assay [10] is K562. Nature of the assay: cells. The following applies: Homo sapiens, K562, 48 h.
Description: Cytotoxicity against human K562 cells after 48 hrs by MTT assay
The target in assay [11] is T1, Bcl-2-like protein 1. The experiment in a line: Inhibition of human Bcl-XL.
In assay [12] the target is T1, Bcl-2-like protein 1. The experiment in a line: Binding affinity to human Bcl-XL by surface plasma resonance based biosensor system.
The test system of assay [13] is K562. The experiment in a line: Induction of apoptosis in human K562 cells assessed activation of caspase3 at 25 uM after 48 hrs by immunoblotting. The class given is functional, cell-based. Background: In western blotting, separated proteins are transferred to a membrane and probed.
For assay [14], the system named is K562. Nature of the assay: Induction of apoptosis in human K562 cells assessed activation of caspase9 at 25 uM after 48 hrs by immunoblotting. In kind it is functional, cell-based.
Assay [15] concerns the target Bcl-2-like protein 1 (Homo sapiens, UniProt Q07817, E96A). Nature of the assay: Binding affinity to human Bcl-XL E96A mutant by surface plasma resonance based biosensor system.
The target in assay [16] is Bcl-2-like protein 1 (Homo sapiens, UniProt Q07817, Y195A). The experiment in a line: Binding affinity to human Bcl-XL Y195A mutant by surface plasma resonance based biosensor system.
Assay [17] relates to K562. Nature of the assay: Induction of apoptosis in human K562 cells assessed as increase of reactive oxygen species level at 25 uM after 48 hrs using DCFH-DA fluorescent dye relative to control. The class given is functional.
In assay [18] the test system is K562. The experiment in a line: Induction of apoptosis in human K562 cells assessed reduction of mitochondrial membrane potential after 24 hrs using JC1 fluorescent dye.
In assay [19] the test system is K562. The experiment in a line: Induction of apoptosis in human K562 cells assessed as chromatin condensation. The class given is functional, cell-based.

Data on 4 compounds can be found in ChEMBL document CHEMBL1157133, “Design, synthesis, and interaction study of quinazoline-2(1H)-thione derivatives as novel potential Bcl-xL inhibitors” (J Med Chem, 2010).

Active and inactive are the calls of the source. The rule behind the calls is not given here.

A word on the EC50: it is the concentration at which the effect is half-maximal. A low value points to greater potency. In general, Kd refers to the concentration at which binding is half-saturated. A high value points to lower affinity. For orientation: IC50 means the midpoint of a concentration-inhibition curve. A lower IC50 goes with greater potency.

Chain of Apoptosis regulator Bcl-2 (P10415 whole entry): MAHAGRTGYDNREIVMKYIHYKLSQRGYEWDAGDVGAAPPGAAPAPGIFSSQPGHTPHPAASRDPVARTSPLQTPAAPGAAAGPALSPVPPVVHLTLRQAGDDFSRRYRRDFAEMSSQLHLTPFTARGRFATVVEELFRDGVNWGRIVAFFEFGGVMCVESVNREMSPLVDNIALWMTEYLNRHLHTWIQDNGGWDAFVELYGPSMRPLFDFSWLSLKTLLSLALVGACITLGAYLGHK
Chain of Induced myeloid leukemia cell differentiation protein Mcl-1 homolog (P97287 whole entry): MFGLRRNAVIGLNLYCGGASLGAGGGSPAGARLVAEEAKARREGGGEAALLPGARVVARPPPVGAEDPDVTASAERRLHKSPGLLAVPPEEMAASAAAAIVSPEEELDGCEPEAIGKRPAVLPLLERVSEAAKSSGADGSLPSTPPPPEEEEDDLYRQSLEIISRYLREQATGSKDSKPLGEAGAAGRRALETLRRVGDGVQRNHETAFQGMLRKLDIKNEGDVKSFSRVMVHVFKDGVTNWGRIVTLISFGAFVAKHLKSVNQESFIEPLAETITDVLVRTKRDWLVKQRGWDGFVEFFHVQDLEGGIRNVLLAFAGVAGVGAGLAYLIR
T1 sequence (Q07817 whole entry): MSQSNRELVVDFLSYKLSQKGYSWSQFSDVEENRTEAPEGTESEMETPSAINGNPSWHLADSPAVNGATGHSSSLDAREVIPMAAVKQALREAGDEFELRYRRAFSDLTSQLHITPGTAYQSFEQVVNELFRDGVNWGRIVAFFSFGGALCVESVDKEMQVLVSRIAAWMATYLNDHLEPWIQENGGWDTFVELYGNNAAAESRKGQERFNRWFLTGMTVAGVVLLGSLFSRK
Chain of Bcl-2-like protein 1 (Homo sapiens, UniProt Q07817, Y101A) (Q07817 whole entry Y101A): as the sequence (Q07817 whole entry) above, with Y101A counted along it
Chain of Bcl-2-like protein 1 (Homo sapiens, UniProt Q07817, Y195A) (Q07817 whole entry Y195A): as the sequence (Q07817 whole entry) above, with Y195A counted along it
Chain of Bcl-2-like protein 1 (Homo sapiens, UniProt Q07817, E96A) (Q07817 whole entry E96A): as the sequence (Q07817 whole entry) above, with E96A counted along it

Consider `COc1ccc(C2C3=C(N=c4s/c(=C\c5ccc(OCc6cccc(C(=O)O)c6)c(OC)c5)c(=O)n42)c2ccccc2CC3)cc1` (stereo not given), for which the EC50 in assay [1] is 3.03 µM; in assay [2], 11.7 µM; in assay [3], more than 100 µM; in assay [5], 9.9 µM; in [9], 7.2 µM; in [10], 6.42 µM. Also, in assay [3], the Activity result was “Dose-dependent effect”. Besides, in assay [4], the Kd is more than 1000 µM. The IC50 in assay [6] was 34.4 µM; in assay [7], 17.4 µM; in assay [8], 19.4 µM; in [11], 17.4 µM.
Take `COc1ccccc1C1C2=C(N=c3s/c(=C\c4cccc(OCC(=O)O)c4)c(=O)n31)c1ccccc1CC2` (stereo not given): the Kd came to 9.5 µM in [12], 6.94 µM in [4], 34.8 µM in assay [15] and 904 µM in assay [16]. For the same compound, the EC50 in assay [1] was 4.57 µM; in [2], 1.54 µM; in assay [3] it was 37.6 µM; in assay [5], 12.7 µM; in assay [9], 7.9 µM; in [10] it was 50.9 µM. The Activity entry in assay [3] and in assay [18] was “Dose-dependent effect” each time. In addition, the outcome in assay [13], in assay [14] and in assay [19] was Active. The IC50 in [6] amounted to 6.4 µM; in assay [7], 3.4 µM; in [8], 3.1 µM; in assay [11], 3.4 µM. Besides, in assay [17], the “fold change (FC)” value worked out at 2.7.
For `COc1ccc(C2C3=C(N=c4s/c(=C\c5ccc(-c6cccc(C(=O)O)c6)o5)c(=O)n42)c2ccccc2CC3)cc1` (stereo not given), the 50% effective concentration (EC50) in assay [1] was 13.1 µM; in assay [2] it was 7.21 µM; in assay [3] it was 12 µM; in assay [5], more than 100 µM; in assay [9], 24.7 µM; in [10] it was 72.3 µM. Moreover, in assay [3], the Activity entry is “Dose-dependent effect”. This compound came in with a Kd in assay [4] of more than 1000 µM. The IC50 in assay [6] was 18.6 µM; in assay [7], 6.9 µM; in assay [8] it was 8 µM; in [11], 6.9 µM.
In the case of `COc1cccc(C2C3=C(N=c4s/c(=C\c5ccc(-c6cccc(C(=O)O)c6)o5)c(=O)n42)c2ccccc2CC3)c1` (stereo not given), the EC50 in assay [1] is 13.8 µM; in assay [2], 7.91 µM; in assay [3], 29.5 µM; in assay [5], more than 100 µM; in assay [9] it was more than 100 µM; in [10], more than 100 µM. Further, the Activity entry in assay [3] was “Dose-dependent effect”. Besides, the IC50 came to 19.2 µM in assay [6], 7.3 µM in [7], 11.1 µM in assay [8] and 7.3 µM in [11].
